Consider 36 compounds from ChEMBL document CHEMBL4002608, “Discovery of new MurA inhibitors using induced-fit simulation and docking” (Bioorg Med Chem Lett, 2017).

A short description of test [1]: Inhibition of Enterobacter cloacae MurA.
In test [2] the test system is Escherichia coli DH5[alpha]. The experiment in a line: Inhibition of Escherichia coli DH5alpha C-terminal His6-tagged MurA expressed in Escherichia coli BL21(DE3) assessed as residual activity at 100 uM using UNAG as substrate after 15 mins in presence of PEP by malachite green dye based spectrophotometric method relative to control.
The nature of test [3]: Inhibition of Escherichia coli DH5alpha C-terminal His6-tagged MurA expressed in Escherichia coli BL21(DE3) using UNAG as substrate after 15 mins in presence of PEP by malachite green dye based spectrophotometric method. Also noted: species or system Escherichia coli DH5[alpha].
A further test deals with Staphylococcus aureus. In words: Antibacterial activity against Staphylococcus aureus ATCC 29213 after 20 to 24 hrs by broth microdilution assay. It counts as functional. In general terms: In broth dilution the organism is exposed to a series of concentrations in liquid medium.
For a further test, the system named is Escherichia coli. The experiment in a line: Antibacterial activity against Escherichia coli ATCC 25922 after 20 to 24 hrs by broth microdilution assay. The test is classed as functional.
The nature of test [4]: Inhibition of Haemophilus influenzae MurA.
Test [5] concerns Escherichia coli DH5[alpha]. In words: Reversible inhibition of Escherichia coli DH5alpha C-terminal His6-tagged MurA expressed in Escherichia coli BL21(DE3) at 5 uM preincubated for 30 mins followed by compound dilution and subsequent substrate UNAG addition measured after 20 mins in presence of PEP by malachite green dye based spectrophotometric method.
Test [6] deals with Escherichia coli DH5[alpha]. In words: Irreversible inhibition of Escherichia coli DH5alpha C-terminal His6-tagged MurA expressed in Escherichia coli BL21(DE3) at 0.8 uM preincubated for 30 mins followed by compound dilution and subsequent substrate UNAG addition measured after 20 mins in presence of PEP by malachite green dye based spectrophotometric method.
Test [7] in a line: Inhibition of Escherichia coli MurA.
The nature of test [8]: Inhibition of methicillin-resistant Staphylococcus aureus MurA.
The nature of test [9]: Inhibition of Staphylococcus aureus MurA.

Molecules are shown by their SMILES. Calls of active or inactive are those of the source. No cut-off for these calls is given here.

Broadly, the IC50 is the midpoint of a concentration-inhibition curve. With `CC1=C(O)C(=O)[C@H]2O[C@@H]2C1=O`, half-maximal inhibition in test [1] (IC50) required 14000 nM.
Regarding `Cc1cc(C)nc(-c2cccc3c2O[C@@H](CNC(=O)c2ccc(N4CCN(C)CC4)cc2)C3)n1`, the Activity in test [2] is 98%.
Take `O=C(O)c1ccc(-c2nccn2Cc2nc3ccccc3c(=O)[nH]2)cc1`: in test [2], the Activity was less than 50%. In [3], the 50% inhibitory concentration (IC50) stood at 82000 nM. For the same compound, the result with Staphylococcus aureus and in the test on Escherichia coli was inactive.
With `Cc1ccccc1-c1cccc(CN[C@H]2CCCN(c3ncccn3)C2)c1`, the Activity in test [2] worked out at 86%.
For `O=C(c1cnn(Cc2ccccc2)c1)N1CC=C(c2c[nH]c3ncccc23)CC1`, the Activity in test [2] was less than 50%. In [3], the IC50 was found to be 109000 nM. Further, the outcome with Staphylococcus aureus and in the test on Escherichia coli was inactive.
For `O=C1C(Oc2ccc(O)cc2)=C(Cl)C(=O)c2ncccc21`, 2800 nM corresponded to half-maximal inhibition in test [4] (IC50).
`CC(=O)N1CCN([C@H](C(=O)O)c2c(C(=O)O)n(Cc3ccccc3)c3ccccc23)CC1`: the Activity in [2] was determined as 96%.
Same read-out and setting: next, `Cc1c(C(=O)N2CCC[C@@H](C(N)=O)C2)sc2ncnc(NCCCc3ccccc3)c12`: 100%; `CCc1cc(C(=O)N2CCN[C@H](C(=O)O)C2)c(NC(=O)c2ccccc2)s1`: 63%; `C[C@@H](Oc1ccc2ccccc2c1)C(=O)NCc1nc(-c2ncccn2)no1`: 98%.
Same read-out and setting: next, `O=C(O)COc1ccccc1[C@@H]1C2=C(CCCC2=O)Nc2nc(SCc3ccccn3)nn21`: 91%; `O=C(Nc1cc(CCc2ccccc2)ccn1)[C@H]1CCCN(c2ncccn2)C1`: 99%.
On the same count and under the same terms, next, `O=C(O)c1c([C@@H](C(=O)O)N2CCN(c3ccccn3)CC2)c2ccccc2n1Cc1ccccc1`: 87%.
In the case of `CCOc1ccc(N2C(=O)[C@@H]3C4c5ccccc5C(C(=O)O)(c5ccccc54)[C@@H]3C2=O)c([N+](=O)[O-])c1`, in test [2], the Activity was found to be 78%.
The same measure, in the same setting: then `O=C(O)[C@H]1CC2(CCN(C(=O)c3cc4ccccc4[nH]3)CC2)CN1C(=O)C1CC1`, with 100%; and `Cc1ncc2c(c1CNC(=O)c1cc3ccccc3[nH]1)CCN(C(=O)C1=CCCC1)C2`, with 66%.
As to `Cc1n[nH]c(S/C(=C/c2ccc(-c3cccc(C(=O)O)c3)o2)C(=O)O)n1`, in test [2], the Activity was less than 50%. In test [3], the IC50 is 1000 nM. The inhibition result in test [5] was “Active”. Also, the outcome in the test with Staphylococcus aureus and in the test on Escherichia coli was inactive.
For the compound `O=C(O)c1nn(CCCc2ccccc2)c2c1CN(C(=O)c1cnc[nH]1)CC2`, the Activity in test [2] stood at 96%.
On the same count and under the same terms, then `O=C(C1=C(O)C(=O)N(c2nnc(SCc3ccccc3)s2)[C@@H]1c1ccc(O)cc1)c1ccco1`, with 62%; and `c1ccc(CN2CC[C@@H](Nc3nncc(-c4cc5ccccc5o4)n3)C2)cc1`, with 82%; and `O=C(O)c1nn(CCCc2ccccc2)c2c1CN(C(=O)c1ccc[nH]1)CC2`, with 91%.
For `C[C@@H]1O[C@@H]1P(=O)(O)O` [FOSFOMYCIN], in test [2], the Activity was less than 50%. For the same compound, the IC50 in test [3] came to 41000 nM. In addition, the inhibition result in [6] is “Active”.
Take `C=C(C(=O)OC)[C@@H]1[C@@H](CCCCCCCC)OC(=O)[C@@H]1O`: the IC50 in test [7] was determined as 2800 nM; in [8] it was 6700 nM.
In the case of `O=C1[C@@H]2C3c4ccccc4C(C(=O)O)(c4ccccc43)[C@@H]2C(=O)N1c1cccc([N+](=O)[O-])c1`, the Activity in [2] was 98%.
Same read-out and setting: then `O=C(CCN1CCCO1)N1CCc2[nH]nc(-c3cccc4ccccc34)c2C1`, with 86%; and `CCOc1ccc(N2C(=O)[C@@H]3C4c5ccccc5C(C(=O)O)(c5ccccc54)[C@@H]3C2=O)cc1`, with 100%; and `CS(=O)(=O)N1CCN([C@H](C(=O)O)c2c(C(=O)O)n(Cc3ccccc3)c3ccccc23)CC1`, with 99%.
On the same count and under the same terms, next, `CO[C@H](C(=O)N1CCc2c(cnc(C)c2CNC(=O)c2cccs2)C1)c1ccccc1`: 92%; `O=C(O)C[C@H]1c2ccccc2CCN1C(=O)c1cc(=O)[nH]c2ccccc12`: 85%.
For the compound `C=C1C(=O)OCC1O` (racemic) [(+/-)-TULIPALINE B], half-maximal inhibition in test [7] (IC50) required 200 nM.
Consider `Cc1ccccc1-n1cc(CN[C@H]2CCCN(c3ncccn3)C2)cn1`, for which, in test [2], the Activity is 99%.
Same read-out and setting: next, `O=C(O)[C@H]1C[C@@H](C(=O)N2CCCC2)CN(C(=O)c2[nH]nc3c2CCCC3)C1`: 100%.
In the case of `O=[N+]([O-])/C(Br)=C/c1ccc(Br)o1`, the IC50 came out at 2800 nM in test [7] and 3900 nM in test [9].
The like results for `O=c1oc2c(Cl)cc(O)c(Cl)c2s1` were, in that order, 280 nM and 1090 nM.
As to `CS(=O)(=O)N1CCc2cc(C(=O)N3CCC(c4cc5ccccc5[nH]4)CC3)ccc21`, the Activity in test [2] was found to be 85%.
Consider `CN1CCN([C@H](C(=O)O)c2c(C(=O)O)n(Cc3ccccc3)c3ccccc23)CC1`, for which the Activity in [2] stood at 94%.
